Test system: subjects with moderate-to-severe plaque psoriasis
Experiment: IGA score, Example 2
Format: in vivo, human
Conditions: for Subjects achieving IGA Score = 0 at Week 52 / Subjects achieving IGA Score = 0 or 1 at Week 52: non-responder imputation
From the text: Described below is a multicenter, long-term extension (LTE), double-blind, dose-ranging, parallel group interventional study in participants from Example 1 to evaluate the long-term efficacy and safety of the hydrochloride salt of the compound of Formula (I) for the treatment of moderate-to-severe plaque psoriasis. Patients from Example 1 continued to receive the same dose of the compound of Formula (I) for an additional 36-week treatment period with a 4-week safety follow up period after the last administration of the compound of Formula (I). Patients randomized to placebo in Example 1 received the compound of Formula (I) at a dose of 100 mg QD starting at Week 16 of Example 1 (FIG. 21).
Secondary endpoints included additional change from baseline of Example 1 in PASI, IGA, and PSSD at Week 52, including the proportions of subjects that achieved PAST 90, PAST 100, an IGA score of cleared (0) or minimal (1), PSSD symptoms score=0, and PSSD signs score=0.

[1] = Placebo → 100 mg QD, crossed over at or after Week 16

CC(=O)NCCCC[C@@H]1NC(=O)[C@H](Cc2c[nH]c3c(C)cccc23)NC(=O)[C@H]([C@@H](C)O)NC(=O)[C@H](CC(N)=O)NC(=O)[C@@H](NC(C)=O)C(C)(C)SSC(C)(C)[C@@H](C(=O)N[C@@H](Cc2ccc(OCCN)cc2)C(=O)N[C@@H](Cc2ccc3ccccc3c2)C(=O)NC2(C(=O)N[C@@H](CCC(=O)O)C(=O)N[C@@H](CC(N)=O)C(=O)N[C@@H](Cc3cccnc3)C(=O)N(C)CC(N)=O)CCOCC2)NC1=O [IL-23 receptor antagonist peptide, Ac-[Pen]*-N-T-[W(7-Me)]-[Lys(Ac)]-[Pen]*-Phe[4-(2-aminoethoxy)]-[2-Nal]-[THP]-E-N-[3-Pal]-Sarc-NH2 (*[Pen]-[Pen]* formdisulfidebond)]
Subjects achieving IGA Score = 0 at Week 52 (25 mg BID): (19.5%)
Subjects achieving IGA Score = 0 or 1 at Week 52 (25 mg BID): (46.3%)
Subjects achieving IGA Score = 0 at Week 52 (25 mg QD): (14.0%)
Subjects achieving IGA Score = 0 or 1 at Week 52 (25 mg QD): (37.2%)
Subjects achieving IGA Score = 0 at Week 52 (50 mg QD): (23.3%)
Subjects achieving IGA Score = 0 or 1 at Week 52 (50 mg QD): (60.5%)
Subjects achieving IGA Score = 0 at Week 52 [1]: 11 (31.4%)
Subjects achieving IGA Score = 0 or 1 at Week 52 [1]: 23 (65.7%)
IGA Score ≤2 (‘Mild’or better), subjects (%) (Week 1, 25 mg BID, N=41): (7.3%)
IGA Score ≤2 (‘Mild’or better), subjects (%) (Week 1, 25 mg QD, N=43): (14.0%)
IGA Score = 0 (‘Cleared’) or 1 (‘Minimal’), subjects (%) (Week 1, 50 mg QD, N=43): (2.3%)
IGA Score ≤2 (‘Mild’or better), subjects (%) (Week 1, 50 mg QD, N=43): (16.3%)
IGA Score = 0 (‘Cleared’) or 1 (‘Minimal’), subjects (%) (Week 1, 100 mg BID, N=42): (2.4%)
IGA Score ≤2 (‘Mild’or better), subjects (%) (Week 1, 100 mg BID, N=42): (23.8%)
IGA Score = 0 (‘Cleared’) or 1 (‘Minimal’), subjects (%) (Week 1, 100 mg QD, N=43): (4.7%)
IGA Score ≤2 (‘Mild’or better), subjects (%) (Week 1, 100 mg QD, N=43): (9.3%)
IGA Score = 0 (‘Cleared’) or 1 (‘Minimal’), subjects (%) (Week 2, 25 mg BID, N=41): (2.4%)
IGA Score ≤2 (‘Mild’or better), subjects (%) (Week 2, 25 mg BID, N=41): (22.0%)
IGA Score ≤2 (‘Mild’or better), subjects (%) (Week 2, 25 mg QD, N=43): (20.9%)
IGA Score = 0 (‘Cleared’) or 1 (‘Minimal’), subjects (%) (Week 2, 50 mg QD, N=43): (7.0%)
IGA Score ≤2 (‘Mild’or better), subjects (%) (Week 2, 50 mg QD, N=43): (34.9%)
IGA Score = 0 (‘Cleared’) or 1 (‘Minimal’), subjects (%) (Week 2, 100 mg BID, N=42): (9.5%)
IGA Score ≤2 (‘Mild’or better), subjects (%) (Week 2, 100 mg BID, N=42): (33.3%)
IGA Score = 0 (‘Cleared’) or 1 (‘Minimal’), subjects (%) (Week 2, 100 mg QD, N=43): (4.7%)
IGA Score ≤2 (‘Mild’or better), subjects (%) (Week 2, 100 mg QD, N=43): (34.9%)
IGA Score = 0 (‘Cleared’) or 1 (‘Minimal’), subjects (%) (Week 4, 25 mg BID, N=41): (17.1%)
IGA Score ≤2 (‘Mild’or better), subjects (%) (Week 4, 25 mg BID, N=41): (51.2%)
IGA Score = 0 (‘Cleared’) or 1 (‘Minimal’), subjects (%) (Week 4, 25 mg QD, N=43): (9.3%)
IGA Score ≤2 (‘Mild’or better), subjects (%) (Week 4, 25 mg QD, N=43): (44.2%)
IGA Score = 0 (‘Cleared’) or 1 (‘Minimal’), subjects (%) (Week 4, 50 mg QD, N=43): (16.3%)
IGA Score ≤2 (‘Mild’or better), subjects (%) (Week 4, 50 mg QD, N=43): (48.8%)
IGA Score = 0 (‘Cleared’) or 1 (‘Minimal’), subjects (%) (Week 4, 100 mg BID, N=42): (38.1%)
IGA Score ≤2 (‘Mild’or better), subjects (%) (Week 4, 100 mg BID, N=42): (69.0%)
IGA Score = 0 (‘Cleared’) or 1 (‘Minimal’), subjects (%) (Week 4, 100 mg QD, N=43): (20.9%)
IGA Score ≤2 (‘Mild’or better), subjects (%) (Week 4, 100 mg QD, N=43): (65.1%)
IGA Score = 0 (‘Cleared’) or 1 (‘Minimal’), subjects (%) (Week 8, 25 mg BID, N=41): (26.8%)
IGA Score = 0 (‘Cleared’), subjects (%) (Week 8, 25 mg BID, N=41): (4.9%)
IGA Score ≤2 (‘Mild’or better), subjects (%) (Week 8, 25 mg BID, N=41): (73.2%)
IGA Score = 0 (‘Cleared’) or 1 (‘Minimal’), subjects (%) (Week 8, 25 mg QD, N=43): (27.9%)
IGA Score = 0 (‘Cleared’), subjects (%) (Week 8, 25 mg QD, N=43): (2.3%)
IGA Score ≤2 (‘Mild’or better), subjects (%) (Week 8, 25 mg QD, N=43): (55.8%)
IGA Score = 0 (‘Cleared’) or 1 (‘Minimal’), subjects (%) (Week 8, 50 mg QD, N=43): (44.2%)
IGA Score = 0 (‘Cleared’), subjects (%) (Week 8, 50 mg QD, N=43): (4.7%)
IGA Score ≤2 (‘Mild’or better), subjects (%) (Week 8, 50 mg QD, N=43): (74.4%)
IGA Score = 0 (‘Cleared’) or 1 (‘Minimal’), subjects (%) (Week 8, 100 mg BID, N=42): (64.3%)
IGA Score = 0 (‘Cleared’), subjects (%) (Week 8, 100 mg BID, N=42): (19.0%)
IGA Score ≤2 (‘Mild’or better), subjects (%) (Week 8, 100 mg BID, N=42): (78.6%)
IGA Score = 0 (‘Cleared’) or 1 (‘Minimal’), subjects (%) (Week 8, 100 mg QD, N=43): (46.5%)
IGA Score = 0 (‘Cleared’), subjects (%) (Week 8, 100 mg QD, N=43): (9.3%)
IGA Score ≤2 (‘Mild’or better), subjects (%) (Week 8, 100 mg QD, N=43): (72.1%)
IGA Score = 0 (‘Cleared’) or 1 (‘Minimal’), subjects (%) (Week 12, 25 mg BID, N=41): (43.9%)
IGA Score = 0 (‘Cleared’), subjects (%) (Week 12, 25 mg BID, N=41): (7.3%)
IGA Score ≤2 (‘Mild’or better), subjects (%) (Week 12, 25 mg BID, N=41): (78.0%)
IGA Score = 0 (‘Cleared’) or 1 (‘Minimal’), subjects (%) (Week 12, 25 mg QD, N=43): (25.6%)
IGA Score = 0 (‘Cleared’), subjects (%) (Week 12, 25 mg QD, N=43): (7.0%)
IGA Score ≤2 (‘Mild’or better), subjects (%) (Week 12, 25 mg QD, N=43): (72.1%)
IGA Score = 0 (‘Cleared’) or 1 (‘Minimal’), subjects (%) (Week 12, 50 mg QD, N=43): (51.2%)
IGA Score = 0 (‘Cleared’), subjects (%) (Week 12, 50 mg QD, N=43): (9.3%)
IGA Score ≤2 (‘Mild’or better), subjects (%) (Week 12, 50 mg QD, N=43): (81.4%)
IGA Score = 0 (‘Cleared’) or 1 (‘Minimal’), subjects (%) (Week 12, 100 mg BID, N=42): (66.7%)
IGA Score = 0 (‘Cleared’), subjects (%) (Week 12, 100 mg BID, N=42): (40.5%)
IGA Score ≤2 (‘Mild’or better), subjects (%) (Week 12, 100 mg BID, N=42): (85.7%)
IGA Score = 0 (‘Cleared’) or 1 (‘Minimal’), subjects (%) (Week 12, 100 mg QD, N=43): (53.5%)
IGA Score = 0 (‘Cleared’), subjects (%) (Week 12, 100 mg QD, N=43): (18.6%)
IGA Score ≤2 (‘Mild’or better), subjects (%) (Week 12, 100 mg QD, N=43): (81.4%)
IGA Score = 0 (‘Cleared’) or 1 (‘Minimal’), subjects (%) (Week 16, 25 mg BID, N=41): (51.2%)
IGA Score = 0 (‘Cleared’), subjects (%) (Week 16, 25 mg BID, N=41): (14.6%)
IGA Score ≤2 (‘Mild’or better), subjects (%) (Week 16, 25 mg BID, N=41): (73.2%)
IGA Score = 0 (‘Cleared’) or 1 (‘Minimal’), subjects (%) (Week 16, 25 mg QD, N=43): (39.5%)
IGA Score = 0 (‘Cleared’), subjects (%) (Week 16, 25 mg QD, N=43): (16.3%)
IGA Score ≤2 (‘Mild’or better), subjects (%) (Week 16, 25 mg QD, N=43): (67.4%)
IGA Score = 0 (‘Cleared’) or 1 (‘Minimal’), subjects (%) (Week 16, 50 mg QD, N=43): (58.1%)
IGA Score = 0 (‘Cleared’), subjects (%) (Week 16, 50 mg QD, N=43): (34.9%)
IGA Score ≤2 (‘Mild’or better), subjects (%) (Week 16, 50 mg QD, N=43): (81.4%)
IGA Score = 0 (‘Cleared’) or 1 (‘Minimal’), subjects (%) (Week 16, 100 mg BID, N=42): (64.3%)
IGA Score = 0 (‘Cleared’), subjects (%) (Week 16, 100 mg BID, N=42): (45.2%)
IGA Score ≤2 (‘Mild’or better), subjects (%) (Week 16, 100 mg BID, N=42): (81.0%)
IGA Score = 0 (‘Cleared’) or 1 (‘Minimal’), subjects (%) (Week 16, 100 mg QD, N=43): (62.8%)
IGA Score = 0 (‘Cleared’), subjects (%) (Week 16, 100 mg QD, N=43): (27.9%)
IGA Score ≤2 (‘Mild’or better), subjects (%) (Week 16, 100 mg QD, N=43): (79.1%)
IGA Score = 0 (‘Cleared’) or 1 (‘Minimal’), subjects (%) (Week 20, 25 mg BID, N=41): (48.8%)
IGA Score = 0 (‘Cleared’), subjects (%) (Week 20, 25 mg BID, N=41): (19.5%)
IGA Score ≤2 (‘Mild’or better), subjects (%) (Week 20, 25 mg BID, N=41): (75.6%)
IGA Score = 0 (‘Cleared’) or 1 (‘Minimal’), subjects (%) (Week 20, 25 mg QD, N=43): (44.2%)
IGA Score = 0 (‘Cleared’), subjects (%) (Week 20, 25 mg QD, N=43): (14.0%)
IGA Score ≤2 (‘Mild’or better), subjects (%) (Week 20, 25 mg QD, N=43): (65.1%)
IGA Score = 0 (‘Cleared’) or 1 (‘Minimal’), subjects (%) (Week 20, 50 mg QD, N=43): (55.8%)
IGA Score = 0 (‘Cleared’), subjects (%) (Week 20, 50 mg QD, N=43): (20.9%)
IGA Score ≤2 (‘Mild’or better), subjects (%) (Week 20, 50 mg QD, N=43): (81.4%)
IGA Score = 0 (‘Cleared’) or 1 (‘Minimal’), subjects (%) (Week 20, 100 mg BID, N=42): (61.9%)
IGA Score = 0 (‘Cleared’), subjects (%) (Week 20, 100 mg BID, N=42): (42.9%)
IGA Score ≤2 (‘Mild’or better), subjects (%) (Week 20, 100 mg BID, N=42): (81.0%)
IGA Score = 0 (‘Cleared’) or 1 (‘Minimal’), subjects (%) (Week 20, 100 mg QD, N=43): (58.1%)
IGA Score = 0 (‘Cleared’), subjects (%) (Week 20, 100 mg QD, N=43): (16.3%)

— US20260232767A1, “INTERLEUKIN-23 RECEPTOR ANTAGONIST PEPTIDES FOR USE IN THE TREATMENT OF PSORIASIS” (Janssen Pharmaceutica NV, priority 2023, published 2026)
